Structures can show the parent of a compound that is named as a salt.

T2 sequence (Q8K4Z4 whole entry): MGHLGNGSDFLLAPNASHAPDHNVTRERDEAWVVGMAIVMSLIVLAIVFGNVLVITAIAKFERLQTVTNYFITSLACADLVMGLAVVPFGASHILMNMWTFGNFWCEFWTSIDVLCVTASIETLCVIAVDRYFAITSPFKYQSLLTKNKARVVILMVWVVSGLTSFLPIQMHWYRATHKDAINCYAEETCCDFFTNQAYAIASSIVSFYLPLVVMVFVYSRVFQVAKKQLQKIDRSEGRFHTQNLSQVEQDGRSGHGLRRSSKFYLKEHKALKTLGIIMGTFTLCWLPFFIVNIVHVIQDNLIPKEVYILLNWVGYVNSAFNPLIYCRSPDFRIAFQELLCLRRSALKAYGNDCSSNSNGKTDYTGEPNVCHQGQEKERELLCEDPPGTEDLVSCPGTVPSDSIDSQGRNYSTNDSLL

For the first experiment, the target named is T1, β1-adrenoreceptor (Cavia porcellus, UniProt H0W3H1).
T1 construct: the hearts were excised and placed in ice-cold oxygenated Krebs Ringer buffer; tissue Charles River Laboratories (animals); host or cells: guinea pig atria (right and left, paired)
T1 sequence (H0W3H1 1-470): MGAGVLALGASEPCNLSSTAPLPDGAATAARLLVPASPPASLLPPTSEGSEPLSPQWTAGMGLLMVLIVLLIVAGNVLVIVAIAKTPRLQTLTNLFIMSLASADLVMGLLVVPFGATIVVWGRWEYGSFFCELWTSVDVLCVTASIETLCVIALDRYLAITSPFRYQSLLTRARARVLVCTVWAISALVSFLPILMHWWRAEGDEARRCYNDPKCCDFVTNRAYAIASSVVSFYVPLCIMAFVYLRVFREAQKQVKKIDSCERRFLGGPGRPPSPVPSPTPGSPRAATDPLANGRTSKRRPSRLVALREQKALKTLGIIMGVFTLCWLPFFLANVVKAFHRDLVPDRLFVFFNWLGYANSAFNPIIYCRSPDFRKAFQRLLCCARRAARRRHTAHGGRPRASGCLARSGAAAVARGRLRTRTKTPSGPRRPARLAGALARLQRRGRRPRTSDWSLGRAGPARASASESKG
The experiment is described as follows: In vitro bioassay for β1-adrenergic activity (atrial rate). The note with it: guinea pig atria, 37° C., pH=7.4, approximately four atrial preparations per compound. In kind it is biochemical. As for the experimental part:
(§1) In Vitro Bioassays for β1 -, β2 - and α-Adrenoreceptor Activity
(§2) Functional evaluation of β1 -, β2 - and α-adrenoreceptor activity was performed using in vitro preparations of guinea pig atria, guinea pig trachea, and rabbit aorta, respectively (Young, et. al, Drug Dev. Res. 1994, 32, 19-28).
For the atrial assay of β1 -adrenergic activity, male Hartley guinea pigs (350-500 g; Charles River Laboratories, Wilmington, Mass.) were sacrificed by decapitation and the hearts were excised and placed in ice-cold oxygenated Krebs Ringer buffer. The atria were separated from the ventricles, leaving the right and left atria attached as a pair. A suture was placed at the apex of each atrial appendage for securing the tissue within the organ bath. The water-jacketed 25-ml organ baths were maintained at 37° C. and filled with Krebs Ringer solution aerated with 95% O2 and 5% CO2. The atrial pairs were equilibrated for at least 20 min after application of 1 g resting tension. β1 -adrenergic activity was assessed using atrial rate (beats per min) and amplitude of contraction (g tension) which were monitored at 1 and 5 min after dosing. Concentration-response curves (10^-11 -10^-4 M) were obtained by cumulative addition of drug to the bath. Following the completion of the dose response curves, isoproterenol was added to assess maximal response of each atrial preparation. EC50 values were calculated from the rate results of approximately four atrial preparations per compound.
(§3) In all experiments, tension was measured by isometric force transducers (52-9529, Harvard Apparatus, Natick, Mass.) coupled to an ink-writing recorder (Gould, Cleveland Ohio). The Krebs Ringer solution contained the following ingredients (mM): NaCl (118.1), NaHCO3 (25.0), D-glucose (11.1), KH2 PO4 (1.2), KCl (4.8), MgSO4 (1.2), CaCl2 (2.5), pH=7.4.
Turning to `CC(CCC[S+](C)[O-])NC[C@H](O)c1ccc(O)c(O)c1` (stereo partly drawn) [*, 1 (R)(3,4-dihyroxyphenyl)-2-(1-methyl-4-methylsulfinylbutylamino) ethano oxalate salt], the EC50 was found to be 1.4 ± 0.3 nM.

The compound `CC(CCCC#N)NC[C@H](O)c1ccc(O)c(O)c1` (stereo partly drawn) [Example 2, 1-(R)-(3,4-dihydroxyphenyl)-2-(1-methyl-4-cyanobutylamino)ethanol] came in with an EC50 of 3.4 ± 0.4 nM.

As for `COCCCNC[C@H](O)c1ccc(O)c(O)c1` [Example 3, 1-(R)-(3,4-dihydroxyphenyl)-2-(3-methoxy-propylamino)ethanol], the EC50 was 19 ± 5.4 nM.

`COCCCC(C)NC[C@H](O)c1ccc(O)c(O)c1` (stereo partly drawn) [Example 5, 1-(R)-(3,4-dihydroxyphenyl)-2-(1-methyl-4-methoxybutylamino)ethanol]: the EC50 was 1.5 ± 0.4 nM.

As to `C[S+]([O-])CCCCNC[C@H](O)c1ccc(O)c(O)c1` (stereo partly drawn) [Example 7, 1-(R)-(3,4-dihydroxyphenyl)-2-(4-methylsulfinylbutylamino)ethanol], the EC50 turned out to be 13.3 ± 1 nM.

Turning to `CSCCCC(C)NC[C@H](O)c1ccc(O)c(O)c1` (stereo partly drawn) [Example 8, 1-(R)-(3,4-dihydroxyphenyl)-2-(1-methyl-4-methylthiobutylamino)ethanol], the EC50 stood at 0.6 ± 0.3 nM.

The compound `CCSCCCNC[C@H](O)c1ccc(O)c(O)c1` [Example 10, 1-(R)-(3,4-dihydroxyphenyl)-2-(3-ethylthiopropylamino)ethanol] displayed an EC50 of 4.8 ± 0.7 nM.

A further experiment addresses T2, β2-adrenoreceptor (Cavia porcellus, UniProt Q8K4Z4).
T2 construct: the trachea was gently excised and placed in ice-cold aerated Krebs Ringer solution; from tissue; host or cells: guinea pig tracheal rings
The experiment is described as follows: In vitro bioassay for β2-adrenergic activity (relaxation of precontracted tracheal rings). In kind it is biochemical. The note with it: guinea pig tracheal rings precontracted with carbachol, 37° C., pH=7.4, read-out: β2 (trachea). As for the experimental part:
as §1, §2
For the tracheal assay of β2 -adrenergic activity, male Hartley guinea pigs (350-500 g) were sacrificed by carbon dioxide inhalation and the trachea was gently excised and placed in ice-cold aerated Krebs Ringer solution. β2 -adrenergic activity was assessed as the relaxation of rings following precontraction with carbachol. The trachea were cut into transverse rings containing two cartilage segments, and sutures were tied onto the cartilage on either side of the band of smooth muscle of each ring. The sutures were used to mount the individual rings in a 2.5-ml organ bath and to measure tension with an isometric force transducer. The water-jacketed organ baths maintained the preparation at 37° C. and were filled with Krebs Ringer solution aerated with 95% O2 and 5% CO2. The tracheal rings were equilibrated for 1 h following the application of 0.5 g resting tension. In some cases, equilibrated rings were then treated with the α2 -antagonist rauwolscine ([…]) and the β1 -antagonist atenolol ([…]) prior to precontraction with carbachol ([…]). Precontracted rings used as controls received treatments of saline only. Concentration-response curves were obtained by cumulative addition of drug to the organ bath, the concentration being increased only after the maximal relaxation to the preceding concentration was attained. After the final response was attained, isoproterenol ([…]) was added to assess maximal response for each preparation.
as §3
As to `CC(CCCC#N)NC[C@H](O)c1ccc(O)c(O)c1` (stereo partly drawn) [Example 2, 1-(R)-(3,4-dihydroxyphenyl)-2-(1-methyl-4-cyanobutylamino)ethanol], the EC50 stood at 2.7 ± 0.5 nM.

Consider `COCCCNC[C@H](O)c1ccc(O)c(O)c1` [Example 3, 1-(R)-(3,4-dihydroxyphenyl)-2-(3-methoxy-propylamino)ethanol], for which the EC50 came out at 21 ± 3 nM.

As for `COCCCC(C)NC[C@H](O)c1ccc(O)c(O)c1` (stereo partly drawn) [Example 5, 1-(R)-(3,4-dihydroxyphenyl)-2-(1-methyl-4-methoxybutylamino)ethanol], the EC50 was 8.2 ± 1.6 nM.

Turning to `C[S+]([O-])CCCCNC[C@H](O)c1ccc(O)c(O)c1` (stereo partly drawn) [Example 7, 1-(R)-(3,4-dihydroxyphenyl)-2-(4-methylsulfinylbutylamino)ethanol], the EC50 was 245 ± 84.7 nM.

Consider `CSCCCC(C)NC[C@H](O)c1ccc(O)c(O)c1` (stereo partly drawn) [Example 8, 1-(R)-(3,4-dihydroxyphenyl)-2-(1-methyl-4-methylthiobutylamino)ethanol], for which the EC50 turned out to be 4.6 ± 0.2 nM.

Turning to `CCSCCCNC[C@H](O)c1ccc(O)c(O)c1` [Example 10, 1-(R)-(3,4-dihydroxyphenyl)-2-(3-ethylthiopropylamino)ethanol], the EC50 worked out at 124 ± 13.6 nM.

A further experiment deals with α-adrenoreceptor. In words: In vitro bioassay for α-adrenergic activity (contraction of aortic rings). Type of experiment: biochemical. The note with it: rabbit aortic rings, propranolol pretreated, 37° C., pH=7.4, read-out: α (aorta). As for the experimental part:
as §1, §2
For evaluation of α-adrenergic activity, male New Zealand white rabbits (2.5 kg) (Simunek Rabbitry, Vista, Calif.) were sacrificed by carbon dioxide inhalation and the thoracic aorta was quickly excised and placed in Krebs Ringer solution. The aorta was cut into 3-mm rings which were subsequently suspended on hooks in organ baths. The 2.5-ml water-jacketed baths were maintained at 37° C. and filled with Krebs Ringer solution aerated with 95% O2 and 5% CO2. The vascular rings were equilibrated for 1 h following the application of a resting tension of 4 g, during which time the buffer was changed at 15-min intervals. All rings were pretreated with propranolol ([…]) 10 min prior to addition of test compounds. Concentration-response curves were obtained by cumulative addition of compound to the organ bath, the concentration being increased only after maximal response to the preceding concentration was attained. After the final response was attained for each test drug, norepinephrine ([…]) was added to assess maximal contraction. Responses are expressed as a percent of the maximal contraction by norepinephrine.
as §3
For the compound `CC(CCC[S+](C)[O-])NC[C@H](O)c1ccc(O)c(O)c1` (stereo partly drawn) [*, 1 (R)(3,4-dihyroxyphenyl)-2-(1-methyl-4-methylsulfinylbutylamino) ethano oxalate salt], the EC50 stood at 7830 ± 239 nM.

Turning to `CC(CCCC#N)NC[C@H](O)c1ccc(O)c(O)c1` (stereo partly drawn) [Example 2, 1-(R)-(3,4-dihydroxyphenyl)-2-(1-methyl-4-cyanobutylamino)ethanol], the EC50 came out at 15600 ± 8220 nM.

For `COCCCNC[C@H](O)c1ccc(O)c(O)c1` [Example 3, 1-(R)-(3,4-dihydroxyphenyl)-2-(3-methoxy-propylamino)ethanol], the EC50 is 61300 ± 3820 nM.

Turning to `COCCCC(C)NC[C@H](O)c1ccc(O)c(O)c1` (stereo partly drawn) [Example 5, 1-(R)-(3,4-dihydroxyphenyl)-2-(1-methyl-4-methoxybutylamino)ethanol], the EC50 was 51800 ± 19200 nM.

As to `C[S+]([O-])CCCCNC[C@H](O)c1ccc(O)c(O)c1` (stereo partly drawn) [Example 7, 1-(R)-(3,4-dihydroxyphenyl)-2-(4-methylsulfinylbutylamino)ethanol], the EC50 is 5500 ± 456 nM.

Regarding `CSCCCC(C)NC[C@H](O)c1ccc(O)c(O)c1` (stereo partly drawn) [Example 8, 1-(R)-(3,4-dihydroxyphenyl)-2-(1-methyl-4-methylthiobutylamino)ethanol], the EC50 is 20900 ± 9850 nM.

As for `CCSCCCNC[C@H](O)c1ccc(O)c(O)c1` [Example 10, 1-(R)-(3,4-dihydroxyphenyl)-2-(3-ethylthiopropylamino)ethanol], the EC50 was more than 10000 nM.

These data come from patent publication US5775329A, “Method and compounds for diagnosing coronary artery disease” (Gensia, Inc., priority 1995, dated 1998).
